From patent US11759455B2, “Substituted 1H-imidazo[4,5-b]pyridin-2(3H)-ones and their use as GLUN2B receptor modulators” (JANSSEN PHARMACEUTICA NV, priority 2016, dated 2023)
Like-named read-outs stand apart in the source and are kept apart here.

What was measured:
[1] = target: T1, human GluN1/GluN2B NMDA receptors (Homo sapiens, UniProt Q05586+Q13224); test: Cell-based calcium flux (FLIPR) assay on cloned human NR1/NR2B ion channels expressed in mammalian cells (standard and HTS buffer variants); conditions: read-out: NR2B IC50 (μM) standard assay;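 further: stable Tet-On inducible cell line, Ca2+ influx triggered by glutamate at about EC40 plus 10 µM glycine, fluorescent dye read-out over 5 min, normalized to control wells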
T1 construct: expressed in transfected cells

[2] = target: T2, human GluN1/GluN2B NMDA receptors (Homo sapiens, UniProt Q13224); test: as above
T2 construct: expressed in transfected cells

[3] = standard assay buffer (0.5 mM MgCl2 in dye loading buffer; 137 mM NaCl, 4 mM KCl in assay buffer), human GluN1/GluN2B, read-out: NR2B IC50 (μM) standard assay
[4] = standard assay buffer (0.5 mM MgCl2 dye loading; 137 mM NaCl, 4 mM KCl assay buffer), human GluN1/GluN2B cells, read-out: NR2B IC50 (μM) standard assay
[5] = HTS assay buffer (1.5 mM MgCl2 in dye loading buffer; 150 mM NaCl, 3 mM KCl in assay buffer), human GluN1/GluN2B, read-out: NR2B IC50 (μM) HTS assay

T2 sequence (Q13224 27-1484, other chains not shown): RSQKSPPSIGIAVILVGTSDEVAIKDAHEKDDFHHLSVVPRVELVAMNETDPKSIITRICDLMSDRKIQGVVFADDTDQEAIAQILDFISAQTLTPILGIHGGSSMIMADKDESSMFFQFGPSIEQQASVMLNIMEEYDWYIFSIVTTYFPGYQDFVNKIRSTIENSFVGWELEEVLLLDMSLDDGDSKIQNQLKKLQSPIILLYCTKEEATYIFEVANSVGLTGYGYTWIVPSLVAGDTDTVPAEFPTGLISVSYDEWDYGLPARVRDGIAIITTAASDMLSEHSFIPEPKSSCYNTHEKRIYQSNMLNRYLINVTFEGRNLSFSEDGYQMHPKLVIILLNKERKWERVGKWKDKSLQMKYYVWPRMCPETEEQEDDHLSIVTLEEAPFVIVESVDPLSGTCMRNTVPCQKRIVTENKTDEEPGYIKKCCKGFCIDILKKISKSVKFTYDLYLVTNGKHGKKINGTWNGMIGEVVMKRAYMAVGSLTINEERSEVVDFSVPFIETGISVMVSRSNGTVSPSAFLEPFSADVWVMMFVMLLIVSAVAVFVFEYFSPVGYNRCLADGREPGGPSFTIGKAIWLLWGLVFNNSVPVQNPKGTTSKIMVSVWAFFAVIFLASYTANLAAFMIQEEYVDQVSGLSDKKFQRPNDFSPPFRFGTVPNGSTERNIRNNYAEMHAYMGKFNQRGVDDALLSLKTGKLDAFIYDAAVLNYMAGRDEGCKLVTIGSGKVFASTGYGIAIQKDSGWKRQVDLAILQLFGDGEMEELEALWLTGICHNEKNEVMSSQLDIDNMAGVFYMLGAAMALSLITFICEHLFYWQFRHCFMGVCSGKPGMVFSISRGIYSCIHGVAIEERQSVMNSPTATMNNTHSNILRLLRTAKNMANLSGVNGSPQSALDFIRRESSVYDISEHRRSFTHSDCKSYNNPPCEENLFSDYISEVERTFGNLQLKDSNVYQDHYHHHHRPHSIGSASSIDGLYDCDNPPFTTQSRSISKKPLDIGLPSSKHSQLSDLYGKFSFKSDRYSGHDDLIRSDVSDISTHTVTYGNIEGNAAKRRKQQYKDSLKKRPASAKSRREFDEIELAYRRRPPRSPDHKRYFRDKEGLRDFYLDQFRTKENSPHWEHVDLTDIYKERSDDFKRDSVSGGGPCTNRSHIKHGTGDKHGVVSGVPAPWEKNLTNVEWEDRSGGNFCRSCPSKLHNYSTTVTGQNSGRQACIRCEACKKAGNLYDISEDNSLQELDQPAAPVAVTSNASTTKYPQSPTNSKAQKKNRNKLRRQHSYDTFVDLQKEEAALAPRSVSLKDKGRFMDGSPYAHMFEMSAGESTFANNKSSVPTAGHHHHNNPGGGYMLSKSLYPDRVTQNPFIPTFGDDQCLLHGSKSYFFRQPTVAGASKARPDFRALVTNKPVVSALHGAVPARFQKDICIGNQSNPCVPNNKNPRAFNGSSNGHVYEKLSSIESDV
T1 sequence (Q13224 27-1484, other chains not shown): as above

Q: Which IC50 ([1]; standard assay buffer (0.5 mM MgCl2 in dye loading buffer; 137 mM NaCl, 4 mM KCl in assay buffer), human GluN1/GluN2B) does the source give for Cc1c(-c2cnc3c(c2)n(CC(O)CCO)c(=O)n3C)cccc1C(F)(F)F (racemic) [Example 399, (R/S)-1-(2,4-Dihydroxybutyl)-3-methyl-6-[2-methyl-3-(trifluoromethyl)phenyl]imidazo[4,5-b]pyridin-2-one] here?
A: 5.1 µM

Q: With O=c1[nH]c2ncc(-c3ccc(F)cc3)cc2n1CC1CCN1 (racemic) [Example 266, (R/S)-1-(Azetidin-2-ylmethyl)-6-(4-fluorophenyl)-3H-imidazo[4,5-b]pyridin-2-one] as the compound, how does the IC50 ([1]; standard assay buffer (0.5 mM MgCl2 dye loading; 137 mM NaCl, 4 mM KCl assay buffer), human GluN1/GluN2B cells) read?
A: 0.173 µM

Q: Which IC50 [2, 3] does the source give for Cn1c(=O)n(CC(=O)N2CC(F)(F)C2)c2cc(-c3ccc(F)c(OC(F)F)c3)cnc21 [Example 590, 1-[2-(3,3-Difluoroazetidin-1-yl)-2-oxo-ethyl]-6-[3-(difluoromethoxy)-4-fluoro-phenyl]-3-methyl-imidazo[4,5-b]pyridin-2-one] here?
A: 0.025 µM

Q: With Cc1cc(F)ccc1-c1cnc2[nH]c(=O)n(CCN3CCCC3)c2c1 [Example 177, 6-(4-Fluoro-2-methyl-phenyl)-1-(2-pyrrolidin-1-ylethyl)-3H-imidazo[4,5-b]pyridin-2-one] as the compound, how does the IC50 [2, 4] read?
A: 0.502 µM

Q: Which IC50 [2, 4] does the source give for Cc1cc(-c2cnc3[nH]c(=O)n(Cc4ccccn4)c3c2)ccc1F [Example 283, 6-(4-Fluoro-3-methyl-phenyl)-1-(2-pyridylmethyl)-3H-imidazo[4,5-b]pyridin-2-one] here?
A: 0.079 µM

Q: Which IC50 [2, 3] does the source give for Cn1c(=O)n(Cc2cncc(F)c2)c2cc(-c3cccc(Cl)c3F)cnc21 [Example 349, 6-(3-Chloro-2-fluoro-phenyl)-1-[(5-fluoro-3-pyridyl)methyl]-3-methyl-imidazo[4,5-b]pyridin-2-one] here?
A: 0.107 µM

Q: With Cc1cc(F)ccc1-c1cnc2[nH]c(=O)n(CC(=O)N3CCC3)c2c1 [Example 320, 1-[2-(Azetidin-1-yl)-2-oxo-ethyl]-6-(4-fluoro-2-methyl-phenyl)-3H-imidazo[4,5-b]pyridin-2-one] as the compound, how does the IC50 [2, 3] read?
A: 0.075 µM

Q: Which IC50 [2, 4] does the source give for O=c1[nH]c2ncc(-c3ccccc3)cc2n1CCN1CC(F)C1 [Example 188, 1-[2-(3-Fluoroazetidin-1-yl)ethyl]-6-phenyl-3H-imidazo[4,5-b]pyridin-2-one] here?
A: 1.44 µM

Q: For Cc1cc(-c2cnc3[nH]c(=O)n(CCN4CCC4)c3c2)ccc1F [Example 156, 1-[2-(Azetidin-1-yl)ethyl]-6-(4-fluoro-3-methyl-phenyl)-3H-imidazo[4,5-b]pyridin-2-one], which IC50 [2, 4] is on record?
A: 0.039 µM

Q: Which IC50 [2, 4] does the source give for Cc1cccc(-c2cnc3[nH]c(=O)n(Cc4cccnc4)c3c2)c1 [Example 297, 6-(m-Tolyl)-1-(3-pyridylmethyl)-3H-imidazo[4,5-b]pyridin-2-one] here?
A: 0.027 µM

Q: For O=c1[nH]c2ncc(-c3cccc(C(F)(F)F)c3)cc2n1Cc1ccccn1 [Example 228, 1-(2-Pyridylmethyl)-6-[3-(trifluoromethyl)phenyl]-3H-imidazo[4,5-b]pyridin-2-one], which IC50 [2, 4] is on record?
A: 0.083 µM

Q: For CCC(=O)Cn1c(=O)[nH]c2ncc(-c3ccc(F)c(F)c3)cc21 [Example 330, 6-(3,4-Difluorophenyl)-1-(2-oxobutyl)-3H-imidazo[4,5-b]pyridin-2-one], which IC50 [2, 3] is on record?
A: 0.004 µM

Q: Which IC50 [2, 4] does the source give for O=c1[nH]c2ncc(-c3cccc(C(F)(F)F)c3)cc2n1CCN1CC(F)(F)C1 [Example 167, 1-[2-(3,3-Difluoroazetidin-1-yl)ethyl]-6-[3-(trifluoromethyl)phenyl]-3H-imidazo[4,5-b]pyridin-2-one] here?
A: 0.158 µM

Q: For Cn1c(=O)n(CC(=O)N2CC(F)(F)C2)c2cc(-c3ccc(F)c(F)c3)cnc21 [Example 416, 1-[2-(3,3-Difluoroazetidin-1-yl)-2-oxo-ethyl]-6-(3,4-difluorophenyl)-3-methyl-imidazo[4,5-b]pyridin-2-one], which IC50 [2, 3] is on record?
A: 0.01 µM

Q: How did the IC50 [2, 4] turn out when Cn1c(=O)n(CC(=O)N2CCC2)c2cc(-c3ccc(C(F)(F)C(F)(F)F)s3)cnc21 [Example 111, 1-[2-(Azetidin-1-yl)-2-oxo-ethyl]-3-methyl-6-[5-(1,1,2,2,2-pentafluoroethyl)-2-thienyl]imidazo[4,5-b]pyridin-2-one] was run?
A: 0.037 µM

Q: For COc1ccc(-c2cnc3[nH]c(=O)n(CC4CC4)c3c2)cc1C [Example 468, 1-(Cyclopropylmethyl)-6-(4-methoxy-3-methyl-phenyl)-3H-imidazo[4,5-b]pyridin-2-one], which IC50 [2, 5] is on record?
A: 4.17 µM

Q: How did the IC50 [2, 4] turn out when O=c1[nH]c2ncc(-c3cccc(C(F)(F)F)c3)cc2n1Cc1ccc(F)nc1 [Example 238, 1-[(6-Fluoro-3-pyridyl)methyl]-6-[3-(trifluoromethyl)phenyl]-3H-imidazo[4,5-1D]pyridin-2-one] was run?
A: 0.088 µM

Q: With Cn1c(=O)n(Cc2csnn2)c2cc(-c3ccc(C(F)F)s3)cnc21 [Example 562, 6-[5-(Difluoromethyl)-2-thienyl]-3-methyl-1-(thiadiazol-4-ylmethyl)imidazo[4,5-b]pyridin-2-one] as the compound, how does the IC50 [2, 3] read?
A: 0.166 µM

Q: With CN(C)C(=O)Cn1c(=O)n(C)c2ncc(-c3ccc(F)c(F)c3)cc21 [Example 421, 2-[6-(3,4-Difluorophenyl)-3-methyl-2-oxo-imidazo[4,5-b]pyridin-1-yl]-N,N-dimethyl-acetamide] as the compound, how does the IC50 [2, 3] read?
A: 0.053 µM

Q: CN(C)C(=O)Cn1c(=O)n(C)c2ncc(-c3cc(F)cc(F)c3)cc21 [Example 428, 2-[6-(3,5-Difluorophenyl)-3-methyl-2-oxo-imidazo[4,5-b]pyridin-1-yl]-N,N-dimethyl-acetamide] was tested. Which IC50 [2, 3] did it give?
A: 0.126 µM

Q: How did the IC50 [2, 4] turn out when O=c1[nH]c2ncc(-c3cccc(F)c3)cc2n1Cc1ccccn1 [Example 281, 6-(3-Fluorophenyl)-1-(2-pyridylmethyl)-3H-imidazo[4,5-b]pyridin-2-one] was run?
A: 0.932 µM

Q: With COc1ccc(-c2cnc3[nH]c(=O)n(Cc4cccc(F)c4)c3c2)c(OC)c1 [Example 496, 6-(2,4-Dimethoxyphenyl)-1-[(3-fluorophenyl)methyl]-3H-imidazo[4,5-b]pyridin-2-one] as the compound, how does the IC50 [2, 5] read?
A: 2.79 µM

Q: Cn1c(=O)n(Cc2ccccn2)c2cc(-c3ccc(F)c(F)c3)cnc21 [Example 62, 6-(3,4-difluorophenyl)-3-methyl-1-(2-pyridylmethyl)imidazo[4,5-b]pyridin-2-one] was tested. Which IC50 [2, 4] did it give?
A: 2 µM

Q: How did the IC50 [2, 4] turn out when Cn1c(=O)n(CC(=O)N2CCC2)c2cc(-c3ccc(CO)s3)cnc21 [Example 89, 1-[2-(Azetidin-1-yl)-2-oxo-ethyl]-6-[5-(hydroxymethyl)-2-thienyl]-3-methyl-imidazo[4,5-b]pyridin-2-one] was run?
A: 0.549 µM

Q: With Cc1cc(F)ccc1-c1cnc2[nH]c(=O)n(Cc3ccc(F)cc3)c2c1 [Example 492, 6-(4-Fluoro-2-methyl-phenyl)-1-[(4-fluorophenyl)methyl]-3H-imidazo[4,5-b]pyridin-2-one] as the compound, how does the IC50 [2, 5] read?
A: 6.12 µM

Q: Which IC50 [2, 4] does the source give for CC(C)C(=O)Cn1c(=O)[nH]c2ncc(-c3cccc(C(F)(F)F)c3)cc21 [Example 241, 1-(3-Methyl-2-oxo-butyl)-6-[3-(trifluoromethyl)phenyl]-3H-imidazo[4,5-b]pyridin-2-one] here?
A: 0.093 µM

Q: How did the IC50 [2, 4] turn out when CCc1ccc(-c2cnc3c(c2)n(CC(=O)N2CC(F)C2)c(=O)n3C)s1 [Example 88, 6-(5-Ethyl-2-thienyl)-1-[2-(3-fluoroazetidin-1-yl)-2-oxo-ethyl]-3-methyl-imidazo[4,5-b]pyridin-2-one] was run?
A: 0.02 µM

Q: Cn1c(=O)n(Cc2cccnc2)c2cc(-c3ccc(F)c(F)c3F)cnc21 [Example 361, 3-Methyl-1-(3-pyridylmethyl)-6-(2,3,4-trifluorophenyl)imidazo[4,5-b]pyridin-2-one] was tested. Which IC50 [2, 3] did it give?
A: 1.54 µM

Q: CNC(=O)Cn1c(=O)[nH]c2ncc(-c3ccc(F)cc3C)cc21 [Example 437, 2-[6-(4-Fluoro-2-methyl-phenyl)-2-oxo-3H-imidazo[4,5-b]pyridin-1-yl]-N-methyl-acetamide] was tested. Which IC50 [2, 3] did it give?
A: 0.219 µM

Q: For Cc1cccnc1Cn1c(=O)[nH]c2ncc(-c3cccc(C(F)(F)F)c3)cc21 [Example 315, 1-[(3-Methyl-2-pyridyl)methyl]-6-[3-(trifluoromethyl)phenyl]-3H-imidazo[4,5-b]pyridin-2-one], which IC50 [2, 4] is on record?
A: > 10 µM

Q: How did the IC50 [2, 4] turn out when Cn1c(=O)n(Cc2cccnc2)c2cc(-c3ccc(F)c(F)c3)cnc21 [Example 59, 6-(3,4-Difluorophenyl)-3-methyl-1-(3-pyridylmethyl)imidazo[4,5-b]pyridin-2-one] was run?
A: 0.246 µM

Q: Which IC50 [2, 4] does the source give for Cc1cc(-c2cnc3c(c2)n(Cc2ccncn2)c(=O)n3C)ccc1F [Example 71, 6-(4-Fluoro-3-methyl-phenyl)-3-methyl-1-(pyrimidin-4-ylmethyl)imidazo[4,5-b]pyridin-2-one] here?
A: 0.278 µM

Q: Which IC50 [2, 4] does the source give for O=c1[nH]c2ncc(-c3cccc(C(F)(F)F)c3)cc2n1CCN1CC(O)C1 [Example 147, 1-[2-(3-Hydroxyazetidin-1-yl)ethyl]-6-[3-(trifluoromethyl)phenyl]-3H-imidazo[4,5-b]pyridin-2-one] here?
A: 0.365 µM

Q: Cn1c(=O)n(Cc2ncccn2)c2cc(-c3cccc(C(F)(F)F)c3)cnc21 [Example 261, 3-Methyl-1-(pyrimidin-2-ylmethyl)-6-[3-(trifluoromethyl)phenyl]imidazo[4,5-b]pyridin-2-one] was tested. Which IC50 [2, 4] did it give?
A: 0.573 µM

Q: COc1cc(Cn2c(=O)[nH]c3ncc(-c4c(F)cccc4OC)cc32)cc(OC)c1 [Example 509, 1-[(3,5-Dimethoxyphenyl)methyl]-6-(2-fluoro-6-methoxy-phenyl)-3H-imidazo[4,5-b]pyridin-2-one] was tested. Which IC50 [2, 5] did it give?
A: 0.884 µM

Q: For Cc1cccc(-c2cnc3c(c2)n(Cc2cncc(F)c2)c(=O)n3C)c1F [Example 352, 6-(2-Fluoro-3-methyl-phenyl)-1-[(5-fluoro-3-pyridyl)methyl]-3-methyl-imidazo[4,5-b]pyridin-2-one], which IC50 [2, 3] is on record?
A: 0.052 µM

Q: With O=c1[nH]c2ncc(-c3ccc(F)cc3)cc2n1Cc1ccccn1 [Example 286, 6-(4-Fluorophenyl)-1-(2-pyridylmethyl)-3H-imidazo[4,5-b]pyridin-2-one] as the compound, how does the IC50 [2, 4] read?
A: 1.98 µM

Q: O=c1[nH]c2ncc(-c3cccc(C(F)F)c3)cc2n1Cc1cccnc1 [Example 291, 6-[3-(Difluoromethyl)phenyl]-1-(3-pyridylmethyl)-3H-imidazo[4,5-b]pyridin-2-one] was tested. Which IC50 [2, 4] did it give?
A: 0.022 µM
